Test results as given in patent US11185527B2, “Methods and compositions relating to steroid hormone receptor-dependent cancers” (Wayne State University, priority 2017, dated 2021).
pKd: −log10 of the molar value. Values joined by “and” are separate entries in the source; they are usually repeats but may differ in a detail not shown here. Equal entries are not always repeated.

What was measured:
[1] = Body weight and condition of mice in the 22Rv1 xenograft study; conditions: 22Rv1 study
[2] = system: AR recruitment to chromatin in LNCaP cells; assay: Chromatin immunoprecipitation (ChIP) with AR antibody in LNCaP cells; assay type: cell-based; conditions: R1881 10 nM + KCI807 20 uM, 2h
Experimental: FIGS. 2E and 2F are graphs showing results of tests in which LNCaP cells were treated with R1881 (10 nM), R1881 (10 nM)+KCI807 (20 uM), or vehicle for 2h. The cells were fixed and subjected to the chromatin immunoprecipitation (ChIP) assay using antibody to AR. ChIP signals from established sites of AR recruitment by ELK1 (FIG. 2E) or from canonical ARE enhancer sites associated with the KLK3 and TMPRSS2 genes (FIG. 2F) are plotted as percent of input DNA.
The ability of KCI807 to selectively block recruitment of AR by ELK1 to chromatin in situ was tested.

[3] = male, SCID, mouse, in vivo, ip, 250 mg/kg, 6 h
ZR-75-1 cells = assay: Breast cancer cell growth, MTT assay; assay type: cell-based
Experimental: FIG. 17A is a graph showing the effect on growth of various concentrations of 5,3′-Dihydroxyflavone on breast cancer cell line ZR-75-1 using the MTT assay.
Twenty four hours after plating the cells, they were treated with the indicated concentrations of the compound.

[4] = Metabolism in pooled human liver microsomes (HLM) with or without NADPH; assay type: in vitro ADME; conditions: HLM 0.05 mg/ml, 30 minutes, 37° C.
Experimental: BD UltraPool human liver microsomes (HLM) 150 and the NAPDH regenerating system solution A and B were obtained from Corning Inc. Pooled HLM were used to determine percentage of metabolism of 5,3′-Dihydroxyflavone and 5,3-Dihydroxy-4′-methylflavone. The compounds (20 μM) were co-incubated with HLM (0.05 mg/ml) in the presence or absence of NAPDH for 30 minutes in a 37° C. water bath. At the end of the microsome reaction, the reaction was quenched with 1000 μl ethyl acetate. The mixture was vortexed and centrifuged at 13,000 rpm for 15 minutes, the supernatant was then subjected to high-performance liquid chromatography with tandem mass spectrometry ([…]) analysis.

Full length human AR = biological target: T1, Full length human AR (Homo sapiens, UniProt P10275); assay: Surface plasmon resonance, compound (analyte) binding to immobilized AR; conditions: SPR, compound as analyte
T1 construct: Full length human AR expressed in insect cells; purchased Abcam (Cambridge Mass.) ab82609; host or cells: insect cells
T1 sequence (P10275 1-920): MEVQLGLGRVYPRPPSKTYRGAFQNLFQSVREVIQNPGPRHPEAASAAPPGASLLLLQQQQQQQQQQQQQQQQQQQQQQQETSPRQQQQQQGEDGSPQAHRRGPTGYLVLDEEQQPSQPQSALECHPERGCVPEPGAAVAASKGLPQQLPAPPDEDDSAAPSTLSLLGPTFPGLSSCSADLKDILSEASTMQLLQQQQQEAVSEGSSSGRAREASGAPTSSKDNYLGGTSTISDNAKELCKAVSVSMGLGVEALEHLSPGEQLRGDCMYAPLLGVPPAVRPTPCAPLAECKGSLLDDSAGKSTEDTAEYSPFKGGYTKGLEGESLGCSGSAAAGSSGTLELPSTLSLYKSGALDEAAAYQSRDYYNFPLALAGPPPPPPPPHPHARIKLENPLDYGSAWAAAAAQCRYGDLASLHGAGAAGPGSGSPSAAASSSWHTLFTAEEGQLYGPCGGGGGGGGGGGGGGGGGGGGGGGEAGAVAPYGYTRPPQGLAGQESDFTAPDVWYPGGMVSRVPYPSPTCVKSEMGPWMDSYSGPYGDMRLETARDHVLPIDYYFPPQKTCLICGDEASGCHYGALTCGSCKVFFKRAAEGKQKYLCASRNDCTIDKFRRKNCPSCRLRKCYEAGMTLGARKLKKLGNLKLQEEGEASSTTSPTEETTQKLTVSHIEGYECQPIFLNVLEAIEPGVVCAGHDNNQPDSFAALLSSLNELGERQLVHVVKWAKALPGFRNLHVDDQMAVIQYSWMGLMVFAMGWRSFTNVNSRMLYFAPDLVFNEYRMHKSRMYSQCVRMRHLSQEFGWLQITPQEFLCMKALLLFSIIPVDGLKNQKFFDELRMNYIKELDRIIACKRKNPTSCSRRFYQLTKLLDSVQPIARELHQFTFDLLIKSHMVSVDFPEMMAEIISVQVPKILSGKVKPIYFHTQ
Experimental: FIG. 2A is a graph showing surface plasmon resonance (SPR) kinetic curves for quantitative analyses of KCI807 binding to AR.
The proteins were eluted with 200 mM imidazole and dialysed against […], pH 7.9 containing 10% glycerol, 20 mM KCl, 2 mM MgCl2, 0.2 mM EDTA, 0.5 mM benzamidine and 0.5 mM DTT.
Amine Coupling Kit, CM5 sensor chip and HBS-N buffer (GE Healthcare) were used for surface plasmon resonance (SPR) analysis. The rate and equilibrium binding constants of the interaction of AR with KCI807 was determined using Biacore 3000 (Biacore, Piscataway, N.J.). […] The immobilization involved activation of carboxymethyl groups on a dextran-coated chip by reaction with N-hydroxysuccinimide, followed by covalent bonding of the ligand (AR) to the chip surface via amide linkages. Reference surfaces were prepared in the same manner but blocked with ethanolamine and thus contained no ligand. […] The interaction (response units, RU) between analyte and ligand was recorded as the ligand RU minus the reference RU. Kinetic values were determined using BIAevaluation software (Biacore), and the data were fitted with the model showing closest match, according to methods described in Drescher DG et al., Methods Mol. Biol., (Clifton, N. J.). […] A 1:1 Langmuir binding model was generally selected, in which all the sensorgrams representing the different analyte concentrations were fitted simultaneously with the wide window of association and dissociation phases. Individual concentration curves were also evaluated to confirm the fitting data. The equilibrium dissociation constant (Kd) was calculated by kd=koff/kon. In all cases, baseline was established in the presence of the vehicle used for the compounds (DMSO) appropriately diluted in BBS-N buffer.

ELK1 = biological target: T2, ELK1 (Homo sapiens, UniProt P19419); assay: Surface plasmon resonance, compound binding to immobilized ELK1; conditions: SPR
T2 construct: His; made in house; host or cells: baculovirus infected Sf9 cells
T2 sequence (P19419 whole entry): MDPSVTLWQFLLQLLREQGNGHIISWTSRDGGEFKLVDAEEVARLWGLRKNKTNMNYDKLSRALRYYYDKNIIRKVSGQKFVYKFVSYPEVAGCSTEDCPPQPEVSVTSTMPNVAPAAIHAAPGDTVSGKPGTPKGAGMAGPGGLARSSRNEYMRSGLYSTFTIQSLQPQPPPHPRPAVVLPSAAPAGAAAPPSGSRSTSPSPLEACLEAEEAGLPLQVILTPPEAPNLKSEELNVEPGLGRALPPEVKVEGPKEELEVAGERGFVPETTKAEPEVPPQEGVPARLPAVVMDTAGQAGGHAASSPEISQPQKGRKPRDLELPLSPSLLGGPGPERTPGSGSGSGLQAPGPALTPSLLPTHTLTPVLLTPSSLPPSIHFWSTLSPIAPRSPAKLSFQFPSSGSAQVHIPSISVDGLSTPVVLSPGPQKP

SMILES: CNC(=O)c1ccc(N2C(=S)N(c3ccc(C#N)c(C(F)(F)F)c3)C(=O)C2(C)C)cc1F [enzalutamide]
- % body weight lost/gained ([1]; Day 0 after tumor implantation): 0%
- % body weight lost/gained ([1]; Day 6 after tumor implantation): +3.7%
- % body weight lost/gained ([1]; Day 11 after tumor implantation): +5.5%
- % body weight lost/gained ([1]; Day 14 after tumor implantation): +3.7%
- % body weight lost/gained ([1]; Day 17 after tumor implantation): +4.6%
- % body weight lost/gained ([1]; Day 20 after tumor implantation): +4.6%
- % body weight lost/gained ([1]; Day 24 after tumor implantation): +4.6%
- % body weight lost/gained ([1]; Day 25 after tumor implantation): +3.7%

SMILES: O=c1cc(-c2cccc(O)c2)oc2cccc(O)c12 [KCI807, 5,3′-dihydroxyflavone]
- AR association with chromatin sites at which ELK1 recruits AR [2]: prevented association of AR
- AR recruitment at canonical ARE enhancer sites (KLK3, TMPRSS2) [2]: did not affect AR recruitment
- plasma level of unmetabolized compound (median), Day 11 [3]: 387 nM
- plasma level of unmetabolized compound (median), Day 19 [3]: 70 nM
- growth of ZR-75-1 cells (ZR-75-1 cells): did not inhibit the growth
- compound concentration after HLM incubation, Control (absence of NADPH), replicate [4]: 973 nM and 981 nM and 1006 nM
- compound concentration after HLM incubation, NADPH treated, replicate [4]: 796 nM and 725 nM and 863 nM
- mean compound concentration, Control (absence of NADPH) [4]: 986 nM
- mean compound concentration, NADPH treated [4]: 795 nM
- percentage metabolized (%) ([4]; NADPH): 19.4%
- koff (Full length human AR): 0.00254 s⁻¹
- kon (Full length human AR): 36700 M⁻¹ s⁻¹
- pKd (Full length human AR; kd=koff/kon, read-out: kd (dissociation constant)): 7.16
- binding to immobilized ELK1 (ELK1): did not bind
